pKa1, pKa2 and water solubility data for 2 compounds are collected here from US20060089387A1, “Stabilized pharmaceutical composition comprising antidiabetic agent” (priority 2004, published 2006).

A short description of data set [1]: pKa of free rosiglitazone and free pioglitazone. In kind it is physicochemical.
The nature of data set [2]: Solubility (complete dissolution) in solvents. It is filed as physicochemical. Particulars: in words.

In data set [1], `CCc1ccc(CCOc2ccc(CC3SC(=O)NC3=O)cc2)nc1` (racemic) [free pioglitazone, [(±)5-[[2-(5-ethyl-2-pyridinyl)ethoxyl]phenyl]methyl]-thiazolidine-2,4-dione] yielded a pKa1 of 6.5 and a pKa2 of 6.1. Moreover, the water solubility entry in data set [2] is on record as “poorly water-soluble”.
As to `CN(CCOc1ccc(CC2SC(=O)NC2=O)cc1)c1ccccn1` (racemic) [free rosiglitazone, (±)5-[4-[2-(N-methyl-N-(2-pyridyl)amino)ethoxy]benzyl]thiazolidine-2,4-dione], in data set [1], the pKa1 was 6.8 and the pKa2 was found to be 6.1. The water solubility result in data set [2] is “poorly water-soluble”.
